From patent US8937077B2, “Bicyclic diamines as janus kinase inhibitors” (Merck Sharp & Dohme Corp., priority 2010, dated 2015) come the findings set out here.

In the test the target is T1, Jak1 (Homo sapiens, UniProt P23458).
T1 construct: using a recombinant purified GST-tagged catalytic domain for each enzyme; GST; purchased Invitrogen M4290
The test is described as follows: Jak Biochemical HTRF Assay (Jak1). As to conditions: recombinant GST-tagged catalytic domain. The text has this:
Compounds of formula I can be prepared according to the general procedures described in the Schemes and Examples herein, using appropriate materials. Representative compounds of the present invention are exemplified herein below. The compounds exemplified are not, however, to be construed as limiting the scope of the invention in any manner. The examples further illustrate details for the preparation of the compounds of the present invention. Those skilled in the art will readily understand that known variations of protecting groups, of reagents, as well as of the conditions and processes of the following preparative procedures, can be used to prepare these compounds. It is also understood that whenever a chemical reagent is not commercially available, such a chemical reagent can be readily prepared by those skilled in the art by either following or adapting known methods described in the literature or described herein. Chiral analogs were prepared via incorporation of chiral reagents or obtained after chiral chromatography separation of a racemically generated analog. All temperatures are degrees Celsius unless otherwise noted. Mass spectra (MS) were measured either by electrospray ion-mass spectroscopy (ESMS) or by atmospheric pressure chemical ionization mass spectroscopy (APCI). Jak1 data were obtained using the in vitro assay described below.
Jak Biochemical HTRF Assay Protocol
The ability of compounds to inhibit the activity of Jak1, Jak2, Jak3, and Tyk2 was measured using a recombinant purified GST-tagged catalytic domain for each enzyme (Invitrogen Jak1 #M4290, […]) in an HTRF format biochemical assay. The reactions employed a common peptide substrate, LCB-EQEDEPEGDYFEWLW-NH2 (in-house). The basic assay protocol is as follows: First, […] of diluted compounds in DMSO were dispensed into the wells of a dry 384-well Black plate (Greiner #781076) using a Labcyte Echo 555 acoustic dispenser. Subsequent reagent additions employed an Agilent Bravo. Next, 18 μL, of 1.11X enzyme and 1.11X substrate in 1X assay buffer (Invitrogen kinase buffer #PV3189, 2 mM DTT, 0.05% BSA) were added to the wells and shaken and then preincubated for 30 minutes at room temperature to allow compound binding to equilibrate. After equilibration, 2 μL of 10X ATP in 1X assay buffer was added to initiate the kinase reaction and the plates were shaken and then incubated at room temperature for 120 minutes. At the end of the incubation, 20 μL of 2X stop buffer (streptavidin-Dylight (Thermo #21845), Eu-tagged pY20 antibody (Perkin Elmer #AD0067), EDTA, HEPES, and Triton) was added to quench the reaction. Plates were shaken and centrifuged and then incubated 60 minutes at room temperature and then read on a Perkin Elmer Envision (λex=337 nm, λem=665 and 615 nm, TRF delay time=20 μs). HTRF signal=10,000*665 nm reading/615 nm reading. After normalization to untreated controls, the percent inhibition of the HTRF signal at each compound concentration was calculated. The plot of percent inhibition versus the log of compound concentration was fit with a 4-parameter dose response equation to calculate IC50 values.
On the technique in general: Time-resolved FRET reads energy transfer from a long-lived donor to a nearby acceptor.

The mark [1] stands for this setting: IC50 class, read-out: Jak1 activity.
Where [2] appears, read: 31.8 μM ATP, read-out: Representative IC50 values.

Like-named read-outs stand apart in the source and are kept apart here.

T1 sequence (P23458 875-1153 limits assumed): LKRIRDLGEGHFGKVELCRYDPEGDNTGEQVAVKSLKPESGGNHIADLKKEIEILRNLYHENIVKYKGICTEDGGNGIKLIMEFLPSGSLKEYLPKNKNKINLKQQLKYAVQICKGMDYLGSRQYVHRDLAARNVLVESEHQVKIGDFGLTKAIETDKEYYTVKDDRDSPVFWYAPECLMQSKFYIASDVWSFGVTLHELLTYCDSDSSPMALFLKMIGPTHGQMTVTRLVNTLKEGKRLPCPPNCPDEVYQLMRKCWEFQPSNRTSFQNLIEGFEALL

As for `O=C(OCc1cnccn1)N1CCCC2C1CCN2c1ncnc2[nH]ccc12` (stereo not shown) [Example 3-18, pyrazin-2-ylmethyl 1-(7H-pyrrolo[2,3-d]pyrimidin-4-yl)octahydro-4H-pyrrolo[3,2-b]-pyridine-4-carboxylate], the IC50 under setting [1] lay in the range of 10 to 100 nM.
For `C[C@H](OC(=O)N1CCC[C@@H]2C1CCN2c1ncnc2[nH]ccc12)c1ccccc1` (stereo partly drawn) [Example 8-2, (1S)-1-phenylethyl (3aR,7 aR)-1-(7H-pyrrolo[2,3-d]pyrimidin-4-yl)octahydro-4-pyrrolo[3,2-b]pyridine-4-carboxylate], the IC50 under setting [1] was 10 to 100 nM.
Take `COC(=O)c1ccc(CCCN2CCC[C@@H]3[C@H]2CCN3c2ncnc3[nH]ccc23)cc1` [Example 13, methyl 4-{3-[(3aR,7aR)-1-(7H-pyrrolo[2,3-d]pyrimidin-4-yl)octahydro-4H-pyrrolo[3,2-b]pyridin-4-yl]propyl}benzoate]: the IC50 under setting [1] fell in the range of 100 to 1000 nM and the IC50 under setting [2] was 169 nM.
As to `COC(=O)c1ccc(COC(=O)N2CCC[C@@H]3[C@H]2CCN3c2ncnc3[nH]ccc23)cc1` [Example 4, 4-(methoxycarbonyl)benzyl (3aR,7aR)-1-(7H-pyrrolo[2,3-d]pyrimidin-4-yl)octahydro-4H-pyrrolo[3,2-b]pyridine-4-carboxylate], the IC50 was 1 to 10 nM under setting [1] and 2 nM under setting [2].
As for `O=C(c1cc2ccsc2[nH]1)N1CCC[C@@H]2[C@H]1CCN2c1ncnc2[nH]ccc12` [Example 29-48, 4-[(3aR,7aR)-4-(6H-thieno[2,3-b]pyrrol-5-ylcarbonyl)octahydro-1H-pyrrolo[3,2-b]pryidin-1-yl]7H-pyrrolo[2,3-d]pyrimidine], the IC50 under setting [1] was 100 to 1000 nM.
In the case of `O=S(=O)(c1ccco1)N1CCC[C@@H]2[C@H]1CCN2c1ncnc2[nH]ccc12` [Example 32-4, 4-[(3aR,7aR)-4-(furan-2-ylsulfonyl)octahydro-1H-pyrrolo[3,2-b]pyridin-1-yl]-7H-pyrrolo[2,3-d]pyrimidine], the IC50 under setting [1] is 10 to 100 nM and the IC50 under setting [2] is 14 nM.
Take `O=C(OCCN1CCCC1)N1CCC[C@@H]2[C@H]1CCN2c1ncnc2[nH]ccc12` [Example 3-40, 2-pyrrolidin-1-ylethyl (3aR,7aR)-1-(7H-pyrrolo[2,3-d]pyrimidin-4-yl)octahydro-4H-pyrrolo[3,2-b]pyridine-4-carboxylate]: the IC50 under setting [1] lay within 100 to 1000 nM.
The same measure, in the same setting: with `C[C@H](OC(=O)N1CCCC2C1CCN2c1ncnc2[nH]ccc12)c1ccccc1` (stereo partly drawn) [Example 3-24, (1S)-1-phenylethyl 1-(7H-pyrrolo[2,3-d]pyrimidin-4-yl)octahydro-4H-pyrrolo[3,2-b]-pyridine-4-carboxylate] the figure was 10 to 100 nM.
On the same count and under the same terms, to `O=C(Cc1ccc(C(F)(F)F)cc1)N1CCCC2C1CCN2c1ncnc2[nH]ccc12` (stereo not shown) [Example 29-5, 4-(4-{[4-(trifluoromethyl)phenyl]acetyl}octahydro-1H-pyrrolo[3,2-b]pyridin-1-yl)-7H-pyrrolo[2,3-d]pyrimidine] belongs 10 to 100 nM; to `Cn1ncc2cc(CC(=O)N3CCC[C@@H]4[C@H]3CCN4c3ncnc4[nH]ccc34)ccc21` [Example 29-59, 4-{(3aR,7aR)-4-[(1-methyl-1H-indazol-5-yl)acetyl]octahydro-1H-pyrrolo[3,2-b]pyridin-1-yl}-7H-pyrrolo[2,3-d]pyrimidine], 100 to 1000 nM.
For `N#Cc1ccccc1C(=O)N1CCC[C@@H]2[C@H]1CCN2c1ncnc2[nH]ccc12` [Example 29-33, 2-{[(3aR,7aR)-1-(7H-pyrrolo[2,3-d]pyrimidin-4-yl)octahydro-4H-pyrrolo[3,2-b]pyridin-4-yl]carbonyl}benzonitrile], the IC50 under setting [1] was 10 to 100 nM.
On to `CC(C)(C)OC(=O)NCc1ccc(COC(=O)N2CCC[C@@H]3[C@H]2CCN3c2ncnc3[nH]ccc23)cc1` [Example 8-1, 4-{[(tert-butoxycarbonyl)amino]methyl}benzyl(3aR,7aR)-1-(7H-pyrrolo[2,3-d]pyrimidin-4-yl)octahydro-4-pyrrolo[3,2-b]pyridine-4-carboxylate], for which the IC50 under setting [1] is 100 to 1000 nM.
On to `O=C(OCc1ccncc1)N1CCCC2C1CCN2c1ncnc2[nH]ccc12` (stereo not shown) [Example 3-13, pyridin-4-ylmethyl 1-(7H-pyrrolo[2,3-d]pyrimidin-4-yl)octahydro-4H-pyrrolo[3,2-b]-pyridine-4-carboxylate], for which the IC50 under setting [1] is 10 to 100 nM.
The same measure, in the same setting: to `O=C(OCCCc1cccnc1)N1CCC[C@@H]2[C@H]1CCN2c1ncnc2[nH]ccc12` [Example 3-48, 3-pyridin-3-ylpropyl (3 aR,7 aR)-1-(7H-pyrrolo[2,3-d]pyrimidin-4-yl)octahydro-4H-pyrrolo[3,2-b]pyridine-4-carboxylate] belongs 10 to 100 nM; to `CCCCOC(=O)N1CCCC2C1CCN2c1ncnc2[nH]ccc12` (racemic) [Example 3-3, butyl 1-(7H-pyrrolo[2,3-d]pyrimidin-4-yl)octahydro-4H-pyrrolo[3,2-b]pyridine-4-carboxylate], 10 to 100 nM; to `CN1CCCC(CCC(=O)N2CCC[C@@H]3[C@H]2CCN3c2ncnc3[nH]ccc23)C1` (stereo partly drawn) [Example 29-55, 4-{(3aR,7aR)-4-[3-(1-methylpiperidin-3-yl)propanoyl]octahydro-1H-pyrrolo[3,2-b]pyridin-1-yl}-7H-pyrrolo[2,3-d]pyrimidine], 100 to 1000 nM.
On to `O=C(OCCn1ccc2ccccc21)N1CCC[C@@H]2[C@H]1CCN2c1ncnc2[nH]ccc12` [Example 3-45, 2-(1H-indol-1-yl)ethyl (3aR,7aR)-1-(7H-pyrrolo[2,3-d]pyrimidin-4-yl)octahydro-4H-pyrrolo[3,2-b]pyridine-4-carboxylate], for which, under setting [1], the IC50 fell in the range of 10 to 100 nM.
Consider `O=C(c1cn2cccnc2n1)N1CCC[C@@H]2[C@H]1CCN2c1ncnc2[nH]ccc12` [Example 29-49, 4-[(3aR,7aR)-4-(imidazo[1,2-a]pyrimidin-2-ylcarbonyl)octahydro-1H-pyrrolo[3,2-b]pyridin-1-yl]-7H-pyrrolo[2,3-d]pyrimidine], for which the IC50 by setting is: under setting [1], 100 to 1000 nM; under setting [2], 132 nM.
Take `CO[C@@](C(=O)N1CCC[C@@H]2[C@H]1CCN2c1ncnc2[nH]ccc12)(c1ccccc1)C(F)(F)F` [Example 19, (2R)-3,3,3-trifluoro-2-methoxy-2-phenyl-1-[(3aR,7aR)-1-(7H-pyrrolo[2,3-d]pyrimidin-4-yl)octahydro-4H-pyrrolo[3,2-b]pyridine-4-yl]propan-1-one]: the IC50 under setting [1] fell in the range of 10 to 100 nM.
For `CN1CCN(CCOC(=O)N2CCC[C@@H]3[C@H]2CCN3c2ncnc3[nH]ccc23)CC1` [Example 3-41, 2-(4-methylpiperazin-1-yl)ethyl(3aR,7aR)-1-(7H-pyrrolo[2,3-d]pyrimidin-4-yl)octahydro-4H-pyrrolo[3,2-b]pyridine-4-carboxylate], the IC50 is 100 to 1000 nM under setting [1] and 131 nM under setting [2].
Regarding `O=C(c1cccc2cccnc12)N1CCC[C@@H]2[C@H]1CCN2c1ncnc2[nH]ccc12` [Example 29-51, 8-{[(3aR,7aR)-1-(7H-pyrrolo[2,3-d]pyrimidin-4-yl)octahydro-4H-pyrrolo[3,2-b]pyridin-4-yl]carbonyl}quinoline], the IC50 under setting [1] lay in the range of 100 to 1000 nM.
`O=S(=O)(N1CCC[C@@H]2[C@H]1CCN2c1ncnc2[nH]ccc12)C(F)(F)F` (single isomer, unassigned) [Example 32-5]: the IC50 under setting [1] fell in the range of 100 to 1000 nM.
Turning to `O=C(c1cnccn1)N1CCC[C@@H]2[C@H]1CCN2c1ncnc2[nH]ccc12` [Example 29-13, 4-[(3aR,7aR)-4-(pyrazin-2-ylcarbonyl)octahydro-1H-pyrrolo[3,2-b]pyridin-1-yl]-7H-pyrrolo[2,3-d]pyrimidine], under setting [1], the IC50 fell in the range of 10 to 100 nM.
